Where a name gives a salt, the structure may show the parent alone.
Molecular target: ROCK2 (Homo sapiens, UniProt O75116)
Assay: ROCK2 kinase inhibition assay (Caliper LABCHIP, FITC peptide substrate)
Type: biochemical
Conditions: 5 μM ATP, 1.5 μM peptide substrate; value ranges
In short: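 Rho kinase with 5 μM ATP and 1.5 μM FITC-AHA-AKRRRLSSLRA-OH peptide in HEPES pH 7.5, 20 mM MgCl2, 0.015% Brij-35, 4 mM DTT, DMSO <2%. EDTA stop; phospho and non-phospho peptide separated on LabChip. IC50 from dose-response fit.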

Sequence of ROCK2 (O75116 whole entry, species assumed): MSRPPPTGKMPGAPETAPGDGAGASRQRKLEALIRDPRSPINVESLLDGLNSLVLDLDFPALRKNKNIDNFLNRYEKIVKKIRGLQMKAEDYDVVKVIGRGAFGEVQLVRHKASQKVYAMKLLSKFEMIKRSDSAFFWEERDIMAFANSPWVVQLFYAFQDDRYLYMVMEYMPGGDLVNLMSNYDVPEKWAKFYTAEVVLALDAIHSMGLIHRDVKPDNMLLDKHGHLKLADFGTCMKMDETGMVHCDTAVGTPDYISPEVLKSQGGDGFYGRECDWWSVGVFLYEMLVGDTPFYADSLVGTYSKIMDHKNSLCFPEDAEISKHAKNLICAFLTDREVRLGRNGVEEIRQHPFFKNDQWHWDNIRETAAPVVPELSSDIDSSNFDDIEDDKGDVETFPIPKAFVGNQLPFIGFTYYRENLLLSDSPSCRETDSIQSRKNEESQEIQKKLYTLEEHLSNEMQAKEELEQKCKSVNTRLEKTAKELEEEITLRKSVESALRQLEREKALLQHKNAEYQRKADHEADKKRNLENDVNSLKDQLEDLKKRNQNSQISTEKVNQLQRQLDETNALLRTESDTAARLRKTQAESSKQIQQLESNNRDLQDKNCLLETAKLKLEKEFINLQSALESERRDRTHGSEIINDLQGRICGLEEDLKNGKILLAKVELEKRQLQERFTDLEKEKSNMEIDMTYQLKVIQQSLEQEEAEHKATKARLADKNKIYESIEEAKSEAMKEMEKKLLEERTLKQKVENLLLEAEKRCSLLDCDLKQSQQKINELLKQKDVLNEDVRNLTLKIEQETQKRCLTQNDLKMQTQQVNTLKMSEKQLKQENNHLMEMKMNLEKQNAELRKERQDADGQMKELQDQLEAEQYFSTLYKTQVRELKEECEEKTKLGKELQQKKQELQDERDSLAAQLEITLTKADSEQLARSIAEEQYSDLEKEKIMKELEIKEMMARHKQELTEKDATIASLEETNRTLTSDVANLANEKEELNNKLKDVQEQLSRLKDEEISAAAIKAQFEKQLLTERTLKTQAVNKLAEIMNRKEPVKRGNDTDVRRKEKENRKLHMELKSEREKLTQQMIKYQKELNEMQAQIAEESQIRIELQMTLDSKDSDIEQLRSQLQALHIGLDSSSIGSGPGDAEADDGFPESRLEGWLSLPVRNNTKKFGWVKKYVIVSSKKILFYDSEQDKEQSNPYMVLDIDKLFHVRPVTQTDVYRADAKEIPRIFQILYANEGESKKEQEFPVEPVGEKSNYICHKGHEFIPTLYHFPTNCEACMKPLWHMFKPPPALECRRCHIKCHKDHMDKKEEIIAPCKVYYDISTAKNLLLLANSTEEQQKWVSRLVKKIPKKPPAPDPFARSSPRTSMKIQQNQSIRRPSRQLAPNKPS

IC50 [µM] | SMILES
< 0.002 | COc1cccc(CN2C(=O)N(c3ccc(-c4cn[nH]c4)cc3)CC2CO)c1 (single isomer, unassigned; (+)) [Example 42, (+)-1-(4-(1H-Pyrazol-4-yl)phenyl)-4-(hydroxymethyl)-3-(3-methoxybenzyl)imidazolidin-2-one]
< 0.002 | COc1cccc(CN2C(=O)N(c3ccc(-c4cn[nH]c4)cc3)CC2C(C)(C)O)c1 (single isomer, unassigned; (+)) [Example 45, (+)-1-(4-(1H-Pyrazol-4-yl)phenyl)-4-(2-hydroxypropan-2-yl)-3-(3-methoxybenzyl)imidazolidin-2-one]
0.0021 to 0.02 | COc1cccc(CN2CC(CO)N(c3ccc(-c4cn[nH]c4)cc3)C2=O)c1 (single isomer, unassigned; (+)) [Example 48, (+)-3-(4-(1H-Pyrazol-4-yl)phenyl)-4-(hydroxymethyl)-1-(3-methoxybenzyl)imidazolidin-2-one]
< 0.002 | COc1cccc(CN2C(=O)N(c3ccc(-c4cn[nH]c4)cc3)CC2CO)c1 (single isomer, unassigned; (-)) [Example 43, (−)-1-(4-(1H-Pyrazol-4-yl)phenyl)-4-(hydroxymethyl)-3-(3-methoxybenzyl)imidazolidin-2-one]
< 0.002 | COc1cccc(CN2C(=O)N(c3ccc(-c4cn[nH]c4)cc3)CC2C(C)(C)O)c1 (single isomer, unassigned; (-)) [Example 44, (−)-1-(4-(1H-Pyrazol-4-yl)phenyl)-4-(2-hydroxypropan-2-yl)-3-(3-methoxybenzyl)imidazolidin-2-one]
0.0201 to 0.2 | COc1cccc(CN2CC(CO)N(c3ccc(-c4cn[nH]c4)cc3)C2=O)c1 (single isomer, unassigned; (-)) [Example 47, (−)-3-(4-(1H-Pyrazol-4-yl)phenyl)-4-(hydroxymethyl)-1-(3-methoxybenzyl)imidazolidin-2-one]
0.0021 to 0.02 | COc1cccc(CN2CCN(c3ccc(-c4cn[nH]c4)cc3)C2=O)c1 [Example 2, 1-(4-(1H-pyrazol-4-yl)phenyl)-3-(3-methoxybenzyl)imidazolidin-2-one]
0.0021 to 0.02 | O=C1N(Cc2ccccc2)CCN1c1ccc(-c2cn[nH]c2)cc1 [Example 3, 1-(4-(1H-pyrazol-4-yl)phenyl)-3-benzylimidazolidin-2-one]
0.0021 to 0.02 | O=C1N(Cc2cccc(F)c2)CCN1c1ccc(-c2cn[nH]c2)cc1 [Example 4, 1-(4-(1H-pyrazol-4-yl)phenyl)-3-(3-fluorobenzyl)imidazolidin-2-one]
0.0201 to 0.2 | O=C1N(Cc2ccc(F)cc2)CCN1c1ccc(-c2cn[nH]c2)cc1 [Example 5, 1-(4-(1H-pyrazol-4-yl)phenyl)-3-(4-fluorobenzyl)imidazolidin-2-one]
0.0021 to 0.02 | COc1cccc(CN2CCN(c3ccc(-c4cn[nH]c4)c(OC)c3)C2=O)c1 [Example 7, 1-(3-Methoxy-4-(1H-pyrazol-4-yl)phenyl)-3-(3-methoxybenzyl)imidazolidin-2-one]
0.0021 to 0.02 | COc1cccc(CN2CCN(c3ccc(-c4cn[nH]c4)cc3OC)C2=O)c1 [Example 10, 1-(2-Methoxy-4-(1H-pyrazol-4-yl)phenyl)-3-(3-methoxybenzyl)imidazolidin-2-one]
0.0021 to 0.02 | CCc1cc(N2CCN(Cc3cccc(OC)c3)C2=O)ccc1-c1cn[nH]c1 [Example 23, 1-(3-Ethyl-4-(1H-pyrazol-4-yl)phenyl)-3-(3-methoxybenzyl)imidazolidin-2-one]
0.0201 to 0.2 | CCOC(=O)C1CN(Cc2ccccc2)C(=O)N1c1ccc(-c2cn[nH]c2)cc1 (stereo not drawn) [Example 29, Ethyl 3-(4-(1H-pyrazol-4-yl)phenyl)-1-benzyl-2-oxoimidazolidine-4-carboxylate]

The next lines start with the compound.

SMILES | IC50 [µM]
COc1cccc(C(CO)N2CCN(c3ccc(-c4cn[nH]c4)cn3)C2=O)c1 (single isomer, unassigned) [Example 462, 1-(5-(1H-pyrazol-4-yl)pyridin-2-yl)-3-(2-hydroxy-1-(3-methoxyphenyl)ethyl)imidazolidin-2-one] | 0.0201 to 0.2
COc1cccc(C(C)N2CCN(c3cc(C)c(-c4cn[nH]c4)cn3)C2=O)c1 (single isomer, unassigned) [Example 470, 1-(1-(3-methoxyphenyl)ethyl)-3-(4-methyl-5-(1H-pyrazol-4-yl)pyridin-2-yl)imidazolidin-2-one] | 0.0201 to 0.2
COc1cccc(C(C)N2CCN(c3cc(C)c(-c4cn[nH]c4)cn3)C2=O)c1 (single isomer, unassigned) [Example 471, 1-(1-(3-methoxyphenyl)ethyl)-3-(4-methyl-5-(1H-pyrazol-4-yl)pyridin-2-yl)imidazolidin-2-one] | 0.0201 to 0.2
CC(c1ccccc1)n1ccn(-c2ccc(-c3cn[nH]c3)cc2)c1=O (single isomer, unassigned; (+)) [Example 72, (+)-1-(4-(1H-pyrazol-4-yl)phenyl)-3-(1-phenylethyl)-1H-imidazol-2(3H)-one] | 0.0021 to 0.02
CC(c1ccccc1)n1ccn(-c2ccc(-c3cn[nH]c3)cc2)c1=O (single isomer, unassigned; (-)) [Example 73, (−)-1-(4-(1H-pyrazol-4-yl)phenyl)-3-(1-phenylethyl)-1H-imidazol-2(3H)-one] | 0.0201 to 0.2
O=C1N(CCc2ccccc2)CCN1c1ccc(-c2cn[nH]c2)cc1 [Example 1, 1-(4-(1H-Pyrazol-4-yl)phenyl)-3-phenethylimidazolidin-2-one] | 0.0021 to 0.02
COc1cc(N2CCN(Cc3cccc(F)c3)C2=O)ccc1-c1cn[nH]c1 [Example 6, 1-(3-Fluorobenzyl)-3-(3-methoxy-4-(1H-pyrazol-4-yl)phenyl)imidazolidin-2-one] | 0.0021 to 0.02
COc1cc(N2CCN(CCc3ccc(F)cc3)C2=O)ccc1-c1cn[nH]c1 [Example 8, 1-(4-Fluorophenethyl)-3-(3-methoxy-4-(1H-pyrazol-4-yl)phenyl)imidazolidin-2-one] | 0.2 to 2
COc1cc(-c2cn[nH]c2)ccc1N1CCN(Cc2cccc(F)c2)C1=O [Example 9, 1-(3-Fluorobenzyl)-3-(2-methoxy-4-(1H-pyrazol-4-yl)phenyl)imidazolidin-2-one] | 0.0201 to 0.2
COc1cc(-c2cn[nH]c2)ccc1N1CCN(CCc2ccccc2F)C1=O [Example 11, 1-(2-Fluorophenethyl)-3-(2-methoxy-4-(1H-pyrazol-4-yl)phenyl)imidazolidin-2-one] | 0.0201 to 0.2
COc1cc(-c2cn[nH]c2)ccc1N1CCN(Cc2ccccc2)C1=O [Example 12, 1-Benzyl-3-(2-methoxy-4-(1H-pyrazol-4-yl)phenyl)imidazolidin-2-one] | 0.2 to 2
COc1cccc([C@@H](C)N2CCN(c3ccc(-c4cn[nH]c4)c(OC)c3)C2=O)c1 [Example 13, (R)-1-(3-Methoxy-4-(1H-pyrazol-4-yl)phenyl)-3-(1-(3-methoxyphenyl)ethyl)imidazolidin-2-one] | < 0.002
COc1cccc([C@@H](C)N2CCN(c3ccc(-c4cn[nH]c4)cc3OC)C2=O)c1 [Example 14, (R)-1-(2-Methoxy-4-(1H-pyrazol-4-yl)phenyl)-3-(1-(3-methoxyphenyl)ethyl)imidazolidin-2-one] | 0.0201 to 0.2
COc1ccc(F)c(CN2CCN(c3ccc(-c4cn[nH]c4)c(OC)c3)C2=O)c1 [Example 15, 1-(2-Fluoro-5-methoxybenzyl)-3-(3-methoxy-4-(1H-pyrazol-4-yl)phenyl)imidazolidin-2-one] | 0.0201 to 0.2
COc1cc(N2CCN(Cc3c(F)cccc3F)C2=O)ccc1-c1cn[nH]c1 [Example 16, 1-(2,6-Difluorobenzyl)-3-(3-methoxy-4-(1H-pyrazol-4-yl)phenyl)imidazolidin-2-one] | 0.0201 to 0.2
COc1cc(N2CCN(Cc3ccccc3F)C2=O)ccc1-c1cn[nH]c1 [Example 17, 1-(2-Fluorobenzyl)-3-(3-methoxy-4-(1H-pyrazol-4-yl)phenyl)imidazolidin-2-one] | 0.0201 to 0.2
COc1cc(N2CCN(Cc3ccccc3)C2=O)ccc1-c1cn[nH]c1 [Example 18, 1-Benzyl-3-(3-methoxy-4-(1H-pyrazol-4-yl)phenyl)imidazolidin-2-one] | 0.0201 to 0.2
COc1cccc(C(CC(=O)O)N2CCN(c3ccc(-c4cn[nH]c4)c(OC)c3)C2=O)c1 (stereo not drawn) [Example 19, 3-(3-(3-Methoxy-4-(1H-pyrazol-4-yl)phenyl)-2-oxoimidazolidin-1-yl)-3-(3-methoxyphenyl)propanoic Acid, TFA] | 0.0201 to 0.2
COC(=O)CC(c1cccc(OC)c1)N1CCN(c2ccc(-c3cn[nH]c3)c(OC)c2)C1=O (stereo not drawn) [Example 20, Methyl 3-(3-(3-methoxy-4-(1H-pyrazol-4-yl)phenyl)-2-oxoimidazolidin-1-yl)-3-(3-methoxyphenyl)propanoate] | 0.2 to 2
COc1cccc(C(CCO)N2CCN(c3ccc(-c4cn[nH]c4)c(OC)c3)C2=O)c1 (stereo not drawn) [Example 21, 1-(3-Hydroxy-1-(3-methoxyphenyl)propyl)-3-(3-methoxy-4-(1H-pyrazol-4-yl)phenyl)imidazolidin-2-one] | 0.0021 to 0.02
COc1cccc(C(CC(C)(C)O)N2CCN(c3ccc(-c4cn[nH]c4)c(OC)c3)C2=O)c1 (stereo not drawn) [Example 22, 1-(3-Hydroxy-1-(3-methoxyphenyl)-3-methylbutyl)-3-(3-methoxy-4-(1H-pyrazol-4-yl)phenyl)imidazolidin-2-one] | 0.2 to 2
CCc1cc(N2CCN(Cc3cccc(F)c3)C2=O)ccc1-c1cn[nH]c1 [Example 24, 1-(3-Ethyl-4-(1H-pyrazol-4-yl)phenyl)-3-(3-fluorobenzyl)imidazolidin-2-one] | 0.0021 to 0.02
CCc1cc(N2CCN(Cc3ccccc3F)C2=O)ccc1-c1cn[nH]c1 [Example 25, 1-(3-Ethyl-4-(1H-pyrazol-4-yl)phenyl)-3-(2-fluorobenzyl)imidazolidin-2-one] | 0.0201 to 0.2
CCc1cc(N2CCN(Cc3ccccc3)C2=O)ccc1-c1cn[nH]c1 [Example 26, 1-Benzyl-3-(3-ethyl-4-(1H-pyrazol-4-yl)phenyl)imidazolidin-2-one] | 0.0201 to 0.2
CCc1cc(N2CCN(CCc3cccc(OC)c3)C2=O)ccc1-c1cn[nH]c1 [Example 27, 1-(3-Ethyl-4-(1H-pyrazol-4-yl)phenyl)-3-(3-methoxyphenethyl)imidazolidin-2-one, TFA] | 0.2 to 2

From patent US10123993B2, “Cyclic ureas as inhibitors of rock” (BRISTOL-MYERS SQUIBB COMPANY, priority 2015, dated 2018)
